Where two headings read alike, the source gives them in different places.
Key:
in vitro = details: human, Caco-2, pH 7.4
Procedure: (§1) Cells of the human colon adenocarcinoma cell line, Caco-2, were grown in Dulbecco’s Modified Eagle Medium (DMEM) supplemented with 10% fetal bovine serum (FBS), 1% L-glutamine, 1% non-essential amino acid, and 0.5% antibiotic–antimycotic solution [20]. Caco-2 cells were harvested with trypsin-EDTA and seeded on polycarbonate filters (pore size: 0.3 μm, growth area: 0.9 cm^2, 12 wells/plate, Beckton Dickinson Bioscience, Bedford, MA, USA) at a density of 1.8 × 10^5 cells/well. The culture medium was changed every 2 days. The monolayer was used for in vitro transport studies, 17–20 days after seeding.
(§2) In transport studies using Caco-2, Calu-3, MDCK, and MucilAir, a transport medium (TM; Hank’s balanced salts solution supplemented with 15 mM glucose and 10 mM HEPES good buffer, pH 7.4) was used. […] The permeability of mannitol across MucilAir was cited from the literature.

[1] = In vitro transepithelial transport study across MDCK monolayers; details: dog, pH 7.4
Procedure: (§3) The epithelial Mardi–Darby canine kidney cell line (MDCK) cells were grown in Modified α-Eagle Medium supplemented with 10% FBS and 0.5% antibiotic–antimycotic solution [13]. MDCK cells were harvested with trypsin-EDTA and seeded on polycarbonate filters (pore size: 0.3 μm, growth area: 0.9 cm^2, 12 wells/plate, Beckton Dickinson Bioscience) at a density of 1.8 × 10^5 cells/well. The culture medium was changed every 2 days. The monolayer was used for in vitro transport studies, 6–7 days after seeding.
as §2

[2] = In vitro transepithelial transport study across MucilAir tissues; details: human, pH 7.4
Caco-2 = test: In vitro transepithelial transport study across Caco-2 monolayers
Procedure: as §1, §2

Calu-3 = test: In vitro transepithelial transport study across Calu-3 monolayers
Procedure: as §3, with “Cells of the human bronchial submucosal gland carcinoma” for “The epithelial Mardi–Darby canine kidney”, “line, Calu-3,” for “line (MDCK) cells”, “DMEM nutrient mixture F-12 HAM” for “Modified α-Eagle Medium”, “[21]. Calu-3” for “[13]. MDCK”, “4.5” for “1.8”, “9–10” for “6–7”
as §2

EpiAirway = test: In vitro transepithelial transport study across EpiAirway tissues
Procedure: Upon arrival, the primary human tracheal/bronchial epithelial cell system, EpiAirway, and the primary human bronchial epithelial cell system, MucilAir, were transferred to the well filled with 0.9 mL assay medium for EpiAirway and 0.7 mL MucilAir culture medium, which are serum free and contain growth factors and phenol red and are supplemented by default with antibiotics (penicillin/streptomycin). Both tissues were subsequently placed in an incubator with 5% CO2 at 37 °C. Both tissues were cultured in an air–liquid interface condition. EpiAirway tissues were used for the transport study following the overnight equilibration in assay medium. The mucous surface of MucilAir tissues was washed with 0.2 mL culture medium 2 days before the experiment in order to adjust the mucous level of each well. The permeation experiment using EpiAirway and MucilAir was conducted according to the manufacturer’s instructions.
In the transport study using EpiAirway, all the procedures were based on the Drug Delivery Protocol established by MatTek Corporation (https://www.mattek.com/wp-content/uploads/EpiAirway-Drug-Delivery-Protocol.pdf), and carried out in Absorption Systems LP. Dulbecco’s Phosphate Buffered Saline (DPBS) without Ca^2+ and Mg^2+ (pH 7.4) was used as the assay buffer. […] Radioactivity was 2 µCi/mL for the dosed [^3H] inulin and 0.5 µCi/mL for the dosed [^14C] mannitol. […]

[3] = cited from earlier work
MDCK [4] = test: in vitro; details: pH 7.4
Procedure: as §3, §2

MucilAir [5] = details: pH 7.4
[6] = nasal application to rats, AUCn/AUCiv; mean ± S.E.; determined in this study by the same method as ref 11
Procedure: Under anesthesia by intraperitoneal sodium pentobarbital (50 mg/kg, Nembutal, Abbott Laboratories, Abbott Park, IL, USA), the right femoral artery was cannulated with polyethylene tubing (SP-31, Natsume, Tokyo, Japan) for the collection of blood samples. […] Blood samples were collected from arterial tubing in heparinized tubes at predetermined time intervals for 120 min. The blood was centrifuged to obtain the plasma.
Under light isoflurane anesthesia, the right femoral artery was cannulated with polyethylene tubing. A drug dissolved in 5 µL of phosphate buffer saline (pH 7.4) was instilled at 1 cm depth from the nostril by microsyringe. Thereafter, animals were kept in a cage (KN-326-III, Natsume, Tokyo, Japan) throughout the experiment. It usually took 5 min after drug instillation for the rat to recover from the anesthesia. Blood samples were collected for 360 min after drug administration. During this period, the animal was allowed free access to water.
Fractional nasal absorption (Fn) was calculated as follows:Fn = AUCn/AUCiv(2) where AUCn and AUCiv are the area under the concentration–time profile following the nasal and intravenous administration of the drug. AUC was calculated according to the trapezoidal rule up to the last sampling point and extrapolation after the last sampling point.

MDCK [7] = tested on: MDCK; set-up: method as in PMID 23200901; details: [14C] D-mannitol; cited from the previous report; cited from earlier work
MucilAir [8] = tested on: MucilAir; set-up: method as in PMID 24216300; details: [3H] mannitol; cited from the previous report; cited from earlier work
[9] = apical to basal, 10 µM, pH 7.4, 37 °C, up to 60 min, mean ± S.E. of 3–4 experiments, inulin as [14C] inulin, mannitol as [14C] D-mannitol

Nc1nc2c(ncn2COCCO)c(=O)[nH]1 [Acyclovir, acyclovir]
Papp at 60 min, 10 µM (in vitro): 1.29 ± 0.28 ×10⁻⁶ cm/s
Papp at 60 min, 10 µM [1]: 0.61 ± 0.23 ×10⁻⁶ cm/s
Papp at 60 min, 10 µM [2]: 0.48 ± 0.05 ×10⁻⁶ cm/s

inulin
Permeability (Papp) Caco-2 (Caco-2; [9]): 0.34 ± 0.20 *^1 ×10^−6cm/s
Permeability (Papp) Calu-3 (Calu-3; [9]): 0.30 ± 0.09 *^1 ×10^−6cm/s
Permeability (Papp) EpiAirway (EpiAirway; apical to basal, 10 µM, DPBS pH 7.4, 37 °C, up to 60 min, mean ± S.E. of 3–4 experiments, inulin as [3H] inulin, mannitol as [14C] D-mannitol): 2.83 ± 0.20 *^2 ×10^−6cm/s
Fractional Absorption (Fn) ([3]; nasal application to rats, AUCn/AUCiv, mean ± S.E., inulin as [14C] inulin, mannitol as [14C] D-mannitol): 12.4 ± 2.0 *^1%

CN(Cc1cnc2nc(N)nc(N)c2n1)c1ccc(C(=O)N[C@@H](CCC(=O)O)C(=O)O)cc1 [Methotrexate, methotrexate]
Papp at 60 min, 10 µM (in vitro): 0.29 ± 0.02 ×10⁻⁶ cm/s
Papp at 60 min, 10 µM [1]: 0.09 ± 0.03 ×10⁻⁶ cm/s
Papp at 60 min, 10 µM [2]: 0.31 ± 0.06 ×10⁻⁶ cm/s

Nc1ccc(S(=O)(=O)O)cc1 [Sulfanilic acid, sulfanilic acid]
Permeability (Papp) Caco-2 (Caco-2; Caco-2, pH 7.4): 0.58 ± 0.14 ×10^−6cm/s
Permeability (Papp) Calu-3 (Calu-3; pH 7.4): 0.75 ± 0.05 ×10^−6cm/s
Permeability (Papp) MDCK (MDCK [4]): 0.43 ± 0.04 ×10^−6cm/s
Permeability (Papp) EpiAirway (EpiAirway; pH 7.4): 2.78 ± 0.40 ×10^−6cm/s
Permeability (Papp) MucilAir (MucilAir [5]): 0.58 ± 0.15 ×10^−6cm/s
Fractional Absorption (Fn) ([3]; rat, in vivo): 82.7 ± 9.0%

C=C[C@H]1C[N@@]2CC[C@H]1C[C@@H]2[C@@H](O)c1ccnc2ccc(OC)cc12 [Quinidine, quinidine]
Papp at 60 min, 10 µM [1]: 11.6 ± 1.31 ×10⁻⁶ cm/s
Papp at 60 min, 10 µM [2]: 18.6 ± 1.93 ×10⁻⁶ cm/s

Cc1cc(=O)n(-c2ccccc2)n1C [Antipyrine, antipyrine]
Papp at 60 min, 10 µM ([1]; MDCK): 32.5 ± 3.71 ×10⁻⁶ cm/s
Fractional Absorption (Fn) [6]: 96.3 ± 4.2%

OC[C@@H](O)[C@@H](O)[C@H](O)[C@H](O)CO [Mannitol, mannitol]
Papp at 60 min, 10 µM (in vitro): 0.92 ± 0.15 ×10⁻⁶ cm/s
Permeability (Papp) MDCK (MDCK [7]): 0.18 ± 0.05 *^3,b ×10^−6cm/s
Permeability (Papp) MucilAir (MucilAir [8]): 0.2 ± 0.0 *^4,c ×10^−6cm/s
Fractional Absorption (Fn) ([3]; rat, in vivo): 52.9 ± 3.4 *^3%
